Among the data in BindingDB's records for doi:10.1021/jm00099a026 (Smithkline Beecham Pharmaceuticals, 1992) are IC50 values, retold here.

The test in a line: Inhibition of ADP-induced platelet aggregation in canine platelet-rich plasma.

For the molecule `CC(=O)N[C@@H](CS)C(=O)N[C@@H](CCCN=C(N)N)C(=O)NCC(=O)N[C@@H](CC(=O)O)C(=O)N[C@@H](C(N)=O)C(C)(C)S`, the IC50 (usually the concentration at which inhibition is half-maximal) was 4.12 µM. `N=C(N)NCCC[C@@H]1NC(=O)[C@@H]2CCCN2C(=O)CNC(=O)[C@H]2CCCN2C(=O)[C@H](CC(=O)O)NC(=O)CNC1=O` came in with an IC50 of 76.6 µM.

Turning to `N=C(N)NCCC[C@@H]1NC(=O)[C@@H]2CCCN2C(=O)[C@@H](Cc2ccccc2)NC(=O)CNC(=O)[C@H](CC(=O)O)NC(=O)CNC1=O`, inhibition was half-maximal at 17.7 µM (IC50).

For the molecule `N=C(N)NCCC[C@@H]1NC(=O)[C@@H]2CCCN2C(=O)[C@H]2CCCN2C(=O)CNC(=O)[C@H](CC(=O)O)NC(=O)CNC1=O`, the IC50 stood at 5.26 µM.

As for `CC(=O)N[C@@H](CS)C(=O)N(C)[C@H](CCCN=C(N)N)C(=O)NCC(=O)N[C@@H](CC(=O)O)C(=O)N[C@H](C(N)=O)C(C)(C)S`, the IC50 came out at 1.79 µM.

For the molecule `CN(C(=O)c1ccccc1S)[C@@H](CCCNC(=N)N)C(=O)NCC(=O)N[C@@H](CC(=O)O)C(=O)Nc1ccccc1S`, half-maximal inhibition (IC50) required 0.09 µM. `CC(=O)N[C@@H](CS)C(=O)N[C@@H](CCCNC(=N)N)C(=O)NCC(=O)N[C@@H](CC(=O)O)C(=O)N[C@H](C(N)=O)C(C)(C)S` showed an IC50 of 20.3 µM. Turning to `CC(=O)N[C@@H](CS)C(=O)N(C)[C@@H](CCCN=C(N)N)C(=O)NCC(=O)N[C@@H](CC(=O)O)C(=O)N[C@H](C(N)=O)C(C)(C)S`, 0.355 µM corresponded to half-maximal inhibition (IC50). Next, `C[C@H](NC(=O)[C@H](CS)NC(=O)[C@@H]1CCCN1C(=O)[C@H](CO)NC(=O)[C@H](CC(=O)O)NC(=O)CNC(=O)[C@H](CCCNC(=N)N)NC(=O)CNC(=O)[C@@H](NC(=O)CN)C(C)(C)S)C(=O)O`: 10.1 µM; `CC(=O)N[C@@H](CS)C(=O)N[C@H](CCCN=C(N)N)C(=O)NCC(=O)N[C@@H](CC(=O)O)C(=O)N[C@H](C(N)=O)C(C)(C)S`: 4.1 µM.
